Our source for the IC50 values is BindingDB's records for doi:10.1128/aac.01536-06 (Public Health Research Institute, 2007).

Experiment [1] concerns the target T1, 1,3-beta-glucan synthase (Candida albicans, UniProt O13423). The experiment is described as follows: Inhibition of glucan synthase in Candida albicans 36082 assessed as incorporation of [3H]uridine diphosphoglucose in presence of 50% serum.
Experiment [2] has as its target T1, 1,3-beta-glucan synthase. In words: Inhibition of glucan synthase in Candida albicans 36082 assessed as incorporation of [3H]uridine diphosphoglucose.
The target of experiment [3] is T1, 1,3-beta-glucan synthase. The experiment is described as follows: Inhibition of glucan synthase in Candida albicans SC5314 in presence of 20% human serum.
The target of experiment [4] is T1, 1,3-beta-glucan synthase. In words: Inhibition of glucan synthase in Candida albicans ATCC 36082 in presence of 20% human serum.
The target of experiment [5] is T1, 1,3-beta-glucan synthase. The experiment is described as follows: Inhibition of glucan synthase in Candida albicans ATCC 36082.
For experiment [6], the target named is T1, 1,3-beta-glucan synthase. In words: Inhibition of glucan synthase in Candida albicans ATCC 90028 in presence of 20% human serum.
Experiment [7] deals with T1, 1,3-beta-glucan synthase. In words: Inhibition of glucan synthase in Candida albicans ATCC 36082 in presence of 50% human serum.
The target in experiment [8] is T1, 1,3-beta-glucan synthase. The experiment is described as follows: Inhibition of glucan synthase in Candida albicans SC5314 in presence of 10% human serum.
For experiment [9], the target named is T1, 1,3-beta-glucan synthase. In words: Inhibition of glucan synthase in Candida albicans ATCC 36082 in presence of 10% human serum.
The target in experiment [10] is T1, 1,3-beta-glucan synthase. In words: Inhibition of glucan synthase in Candida albicans ATCC 90028 in presence of 50% human serum.
Experiment [11] deals with T1, 1,3-beta-glucan synthase. The experiment is described as follows: Inhibition of glucan synthase in Candida albicans SC5314 in presence of 50% human serum.

T1 sequence (O13423 whole entry): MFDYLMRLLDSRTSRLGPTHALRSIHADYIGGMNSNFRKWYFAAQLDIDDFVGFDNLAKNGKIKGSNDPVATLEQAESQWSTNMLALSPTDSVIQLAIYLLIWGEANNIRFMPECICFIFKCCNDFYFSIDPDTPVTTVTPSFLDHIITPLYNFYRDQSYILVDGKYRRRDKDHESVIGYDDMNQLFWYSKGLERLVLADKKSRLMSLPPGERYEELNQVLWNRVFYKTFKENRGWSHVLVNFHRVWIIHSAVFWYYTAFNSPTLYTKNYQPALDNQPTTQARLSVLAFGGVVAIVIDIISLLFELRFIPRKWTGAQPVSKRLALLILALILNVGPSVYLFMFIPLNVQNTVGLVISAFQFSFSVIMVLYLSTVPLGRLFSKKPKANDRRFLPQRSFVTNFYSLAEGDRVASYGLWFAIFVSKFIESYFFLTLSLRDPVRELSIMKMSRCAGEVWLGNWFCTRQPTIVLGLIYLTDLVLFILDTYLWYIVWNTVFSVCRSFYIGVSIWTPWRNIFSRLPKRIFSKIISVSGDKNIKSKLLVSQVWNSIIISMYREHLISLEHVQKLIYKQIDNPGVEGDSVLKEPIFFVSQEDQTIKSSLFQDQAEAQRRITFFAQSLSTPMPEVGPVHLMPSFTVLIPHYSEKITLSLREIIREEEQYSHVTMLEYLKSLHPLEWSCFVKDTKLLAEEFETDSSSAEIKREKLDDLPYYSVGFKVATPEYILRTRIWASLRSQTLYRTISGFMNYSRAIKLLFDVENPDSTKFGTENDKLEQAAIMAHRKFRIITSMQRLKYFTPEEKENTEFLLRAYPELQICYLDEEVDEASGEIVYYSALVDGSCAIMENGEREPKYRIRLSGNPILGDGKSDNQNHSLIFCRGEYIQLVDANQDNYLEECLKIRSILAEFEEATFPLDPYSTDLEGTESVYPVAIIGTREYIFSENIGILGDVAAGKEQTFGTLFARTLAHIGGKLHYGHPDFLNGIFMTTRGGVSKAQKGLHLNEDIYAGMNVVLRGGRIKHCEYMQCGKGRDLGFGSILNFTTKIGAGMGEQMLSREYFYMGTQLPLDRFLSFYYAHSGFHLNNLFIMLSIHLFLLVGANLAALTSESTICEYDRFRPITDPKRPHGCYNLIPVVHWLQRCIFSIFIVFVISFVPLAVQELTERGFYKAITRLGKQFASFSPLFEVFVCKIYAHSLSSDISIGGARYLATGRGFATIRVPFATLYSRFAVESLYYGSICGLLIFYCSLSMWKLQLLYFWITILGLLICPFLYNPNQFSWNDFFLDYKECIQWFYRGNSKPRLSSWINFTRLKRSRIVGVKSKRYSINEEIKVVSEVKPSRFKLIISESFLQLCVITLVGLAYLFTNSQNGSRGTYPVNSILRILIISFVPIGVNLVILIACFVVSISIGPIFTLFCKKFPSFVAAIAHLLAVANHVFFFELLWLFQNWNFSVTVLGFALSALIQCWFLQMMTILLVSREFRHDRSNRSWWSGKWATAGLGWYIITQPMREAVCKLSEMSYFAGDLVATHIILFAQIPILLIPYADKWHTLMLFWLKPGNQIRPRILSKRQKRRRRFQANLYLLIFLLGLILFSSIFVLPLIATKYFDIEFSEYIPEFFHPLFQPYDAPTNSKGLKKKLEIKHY

As usually defined, the IC50 is the midpoint of a concentration-inhibition curve. `CCC(C)CC(C)CCCCCCCCC(=O)N[C@H]1C[C@@H](O)[C@@H](NCCN)NC(=O)[C@@H]2[C@@H](O)CCN2C(=O)[C@H]([C@H](O)CCN)NC(=O)[C@H]([C@H](O)[C@@H](O)c2ccc(O)cc2)NC(=O)[C@@H]2C[C@@H](O)CN2C(=O)[C@H]([C@@H](C)O)NC1=O` (stereo partly specified) [CHEBI:474180]: the IC50 came out at 6.2 nM at 1,3-beta-glucan synthase [1]; 0.33 nM at 1,3-beta-glucan synthase [2]; 37 nM on 1,3-beta-glucan synthase [3]; 5.3 nM at 1,3-beta-glucan synthase [4]; 0.9 nM on 1,3-beta-glucan synthase [5]; 2.1 nM at 1,3-beta-glucan synthase [6]. Further, the IC50 worked out at 8.7 nM at 1,3-beta-glucan synthase [7]; 27 nM on 1,3-beta-glucan synthase [8]; 2.8 nM at 1,3-beta-glucan synthase [9]; 6.3 nM at 1,3-beta-glucan synthase [10]; 81 nM on 1,3-beta-glucan synthase [11].
